For two molecules, Ki results are on record in ChEMBL document CHEMBL6078716, “Advances in Psychedelic Therapeutics: Novel Prodrugs and Derivatives for Enhanced Mental Health Treatment” (ACS Med Chem Lett, 2024).

For assay [1], the target named is T1, 5-hydroxytryptamine receptor 1A (Homo sapiens, UniProt P08908).
T1 sequence (P08908 whole entry): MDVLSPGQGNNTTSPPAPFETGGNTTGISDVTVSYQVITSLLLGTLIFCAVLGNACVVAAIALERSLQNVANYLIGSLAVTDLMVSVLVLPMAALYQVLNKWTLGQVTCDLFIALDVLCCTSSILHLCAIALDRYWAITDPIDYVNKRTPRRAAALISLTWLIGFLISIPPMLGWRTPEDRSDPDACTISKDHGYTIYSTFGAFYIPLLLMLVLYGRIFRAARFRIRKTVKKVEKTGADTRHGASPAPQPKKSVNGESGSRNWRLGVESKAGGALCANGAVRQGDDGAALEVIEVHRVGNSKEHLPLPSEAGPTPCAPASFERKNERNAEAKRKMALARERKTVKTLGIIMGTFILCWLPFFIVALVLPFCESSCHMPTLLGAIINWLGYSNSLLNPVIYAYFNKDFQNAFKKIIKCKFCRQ
Briefly: Binding affinity to 5-HT1A receptor (unknown origin) expressed in HEK293 cells assessed as inhibition constant. Type of assay: cell-based.

Assay [2] concerns the target 5-hydroxytryptamine receptor 2A (Homo sapiens, UniProt P28223). The assay is described as follows: Binding affinity to 5-HT2A receptor (unknown origin) expressed in HEK293 cells assessed as inhibition constant. Type of assay: cell-based.

Chain of 5-hydroxytryptamine receptor 2A (P28223 whole entry): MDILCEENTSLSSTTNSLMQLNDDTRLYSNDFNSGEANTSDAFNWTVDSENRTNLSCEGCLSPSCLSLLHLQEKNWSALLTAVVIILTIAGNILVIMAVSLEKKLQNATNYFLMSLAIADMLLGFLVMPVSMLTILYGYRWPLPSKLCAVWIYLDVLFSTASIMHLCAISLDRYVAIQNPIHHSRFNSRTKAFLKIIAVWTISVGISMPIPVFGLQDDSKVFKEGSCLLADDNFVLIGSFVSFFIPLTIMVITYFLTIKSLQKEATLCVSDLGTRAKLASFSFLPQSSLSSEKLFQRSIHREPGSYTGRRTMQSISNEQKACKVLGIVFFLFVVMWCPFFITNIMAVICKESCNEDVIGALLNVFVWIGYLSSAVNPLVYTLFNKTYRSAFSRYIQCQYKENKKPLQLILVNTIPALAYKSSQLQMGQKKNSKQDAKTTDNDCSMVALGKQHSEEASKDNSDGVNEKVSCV

With `CN(C)CCc1c[nH]c2cccc(O)c12` [PSILOCIN], the Ki (in general, the dissociation constant of the complex between target and ligand, obtained from inhibition or displacement) in assay [1] was found to be 0.567 µM.

Take `CN(C)CCc1c[nH]c2cccc(OP(=O)(O)O)c12` [PSILOCYBIN]: the Ki in assay [1] and in assay [2] was greater than 10 µM each time.
